Laboratory results from patent US20020193320A1, “C-2 modified erythromycin derivatives” (priority 1999, published 2002).

Assays:
Assay in all cases: In vitro antibacterial activity, agar dilution MIC
Type in all cases: cell-based
[1] = test system: Staphylococcus epidermidis 3519; parameters: unit not given here; conditions: code HH, BHI agar, 35-37° C., 20 to 24 hours
Protocol: (§1) Representative compounds of the present invention were assayed in vitro for antibacterial activity as follows: Twelve petri dishes containing successive aqueous dilutions of the test compound mixed with 10 mL of sterilized Brain Heart Infusion (BHI) agar (Difco 0418-01-5) were prepared. Each plate was inoculated with 1:100 (or 1:10 for slow-growing strains, such as Micrococcus and Streptococcus) dilutions of up to 32 different microorganisms, using a Steers replicator block. The inoculated plates were incubated at 35-37° C. for 20 to 24 hours. In addition, a control plate, using BHI agar containing no test compound, was prepared and incubated at the beginning and end of each test.
(§2) An additional plate containing a compound having known susceptibility patterns for the organisms being tested and belonging to the same antibiotic class as the test compound was also prepared and incubated as a further control, as well as to provide test-to-test comparability.
(§3) After incubation, each plate was visually inspected. The minimum inhibitory concentration (MIC) was defined as the lowest concentration of drug yielding no growth, a slight haze, or sparsely isolated colonies on the inoculum spot as compared to the growth control.

[2] = test system: Streptococcus pyogenes PIU 2548; parameters: unit not given here; conditions: code NN, BHI agar, 35-37° C., 20 to 24 hours
Protocol: as §1, §2, §3

[3] = test system: Staphylococcus aureus ATCC 6538P; parameters: unit not given here; conditions: code AA, BHI agar, 35-37° C., 20 to 24 hours
Protocol: as §1, §2, §3

Escherichia coli SS = test system: Escherichia coli SS; parameters: unit not given here; conditions: code RR, BHI agar, 35-37° C., 20 to 24 hours
Protocol: as §1, §2, §3

Candida albicans CCH 442 = test system: Candida albicans CCH 442; parameters: unit not given here; conditions: code TT, BHI agar, 35-37° C., 20 to 24 hours
Protocol: as §1, §2, §3

Escherichia coli JUHL = test system: Escherichia coli JUHL; parameters: unit not given here; conditions: code QQ, BHI agar, 35-37° C., 20 to 24 hours
Protocol: as §1, §2, §3

[4] = test system: Streptococcus pyogenes 930; parameters: unit not given here; conditions: code MM, BHI agar, 35-37° C., 20 to 24 hours
Protocol: as §1, §2, §3

[5] = test system: Staphylococcus aureus CMX 642A; parameters: unit not given here; conditions: code DD, BHI agar, 35-37° C., 20 to 24 hours
Protocol: as §1, §2, §3

[6] = test system: Mycobacterium smegmatis ATCC 114; parameters: unit not given here; conditions: code UU, BHI agar, 35-37° C., 20 to 24 hours
Protocol: as §1, §2, §3

[7] = test system: Micrococcus luteus ATCC 9341; parameters: unit not given here; conditions: code OO, BHI agar, 35-37° C., 20 to 24 hours
Protocol: as §1, §2, §3

Escherichia coli DC-2 = test system: Escherichia coli DC-2; parameters: unit not given here; conditions: code SS, BHI agar, 35-37° C., 20 to 24 hours
Protocol: as §1, §2, §3

[8] = test system: Staphylococcus aureus A-5177; parameters: unit not given here; conditions: code BB, BHI agar, 35-37° C., 20 to 24 hours
Protocol: as §1, §2, §3

[9] = test system: Staphylococcus aureus CMX 553; parameters: unit not given here; conditions: code FF, BHI agar, 35-37° C., 20 to 24 hours
Protocol: as §1, §2, §3

[10] = test system: Nocardia Asteroides ATCC 99700; parameters: unit not given here; conditions: code VV, BHI agar, 35-37° C., 20 to 24 hours
Protocol: as §1, §2, §3

[11] = test system: Streptococcus agalactiae CMX 508; parameters: unit not given here; conditions: code KK, BHI agar, 35-37° C., 20 to 24 hours
Protocol: as §1, §2, §3

[12] = test system: Enterococcus faecium ATCC X043; parameters: unit not given here; conditions: code II, BHI agar, 35-37° C., 20 to 24 hours
Protocol: as §1, §2, §3

[13] = test system: Staphylococcus aureus NCTC 10649M; parameters: unit not given here; conditions: code EE, BHI agar, 35-37° C., 20 to 24 hours
Protocol: as §1, §2, §3

[14] = test system: Streptococcus bovis A-5169; parameters: unit not given here; conditions: code JJ, BHI agar, 35-37° C., 20 to 24 hours
Protocol: as §1, §2, §3

[15] = test system: Staphylococcus aureus A-5278; parameters: unit not given here; conditions: code CC, BHI agar, 35-37° C., 20 to 24 hours
Protocol: as §1, §2, §3

[16] = test system: Staphylococcus aureus 1775; parameters: unit not given here; conditions: code GG, BHI agar, 35-37° C., 20 to 24 hours
Protocol: as §1, §2, §3

[17] = test system: Streptococcus Pneumonia ATCC 6303; conditions: code XX, 35-37° C., 20 to 24 hours
Protocol: as §1, §2, §3

[18] = test system: Streptococcus Pneumonia 5649; conditions: code ZZA (code list: ZA), 35-37° C., 20 to 24 hours
Protocol: as §1, §2, §3

[19] = test system: Micrococcus luteus ATCC 4698; conditions: code PP, BHI agar, 35-37° C., 20 to 24 hours
Protocol: as §1, §2, §3

[20] = test system: Streptococcus Pneumonia GYR 1171; conditions: code YY, 35-37° C., 20 to 24 hours
Protocol: as §1, §2, §3

[21] = test system: Streptococcus pyogenes EES61; conditions: code LL, BHI agar, 35-37° C., 20 to 24 hours
Protocol: as §1, §2, §3

[22] = test system: Haemophilis Influenzae DILL AMP R; conditions: code WW, 35-37° C., 20 to 24 hours
Protocol: as §1, §2, §3

[23] = test system: Streptococcus Pneumonia 5979; conditions: code ZZ, 35-37° C., 20 to 24 hours
Protocol: as §1, §2, §3

For `CC[C@H]1OC(=O)[C@H](C)[C@@H](O[C@H]2C[C@@](C)(OC)[C@@H](O)[C@H](C)O2)[C@H](C)[C@@H](O[C@@H]2O[C@H](C)C[C@H](N(C)C)[C@H]2O)[C@](C)(O)C[C@@H](C)C(=O)[C@H](C)[C@@H](O)[C@]1(C)O` [Ery. A, Erythromycin A, reference compound], the “Antibacterial Activity (MIC)” value [1] was 0.39, the “Antibacterial Activity (MIC)” value [2] was 6.2 and the “Antibacterial Activity (MIC)” value [3] was 0.2. The “Antibacterial Activity (MIC)” value (Escherichia coli SS) was 0.78, the “Antibacterial Activity (MIC)” value (Candida albicans CCH 442) was greater than 100 and the “Antibacterial Activity (MIC)” value (Escherichia coli JUHL) was greater than 100. For the same molecule, the “Antibacterial Activity (MIC)” value [4] was greater than 100, the “Antibacterial Activity (MIC)” value [5] was 0.39 and the “Antibacterial Activity (MIC)” value [6] was 3.1. For the same molecule, the “Antibacterial Activity (MIC)” value [7] was 0.05, the “Antibacterial Activity (MIC)” value (Escherichia coli DC-2) was greater than 100 and the “Antibacterial Activity (MIC)” value [8] was 3.1. For the same molecule, the “Antibacterial Activity (MIC)” value [9] was 0.39, the “Antibacterial Activity (MIC)” value [10] was 0.1 and the “Antibacterial Activity (MIC)” value [11] was 0.05. The “Antibacterial Activity (MIC)” value [12] was 0.05, the “Antibacterial Activity (MIC)” value [13] was 0.39 and the “Antibacterial Activity (MIC)” value [14] was 0.02. The “Antibacterial Activity (MIC)” value [15] was greater than 100, the “Antibacterial Activity (MIC)” value [16] was greater than 100 and the “Antibacterial Activity (MIC)” value [17] was 0.06. For the same molecule, the “Antibacterial Activity (MIC)” value [18] was 16, the “Antibacterial Activity (MIC)” value [19] was 0.2 and the “Antibacterial Activity (MIC)” value [20] was 0.06. The “Antibacterial Activity (MIC)” value [21] was 0.05 and the “Antibacterial Activity (MIC)” value [22] was 4.

With `CCC1OC(=O)C(C)(CC=Cc2ccccc2)C(=O)C(C)C(OC2OC(C)CC(N(C)C)C2O)C(C)(OC)CC(C)C(=O)C(C)C2NC(=O)OC12C` (stereo not shown) [Example 1, Compound of formula (II): R^a is CH3, R^b is H, Y and Z together are O, T is —NH—, R is —CH2CH═CH-(phenyl)] the “Antibacterial Activity (MIC)” value [1] was 50, the “Antibacterial Activity (MIC)” value [2] was 12.5 and the “Antibacterial Activity (MIC)” value [3] was 25. The “Antibacterial Activity (MIC)” value (Escherichia coli SS) was 50, the “Antibacterial Activity (MIC)” value (Candida albicans CCH 442) was 100 and the “Antibacterial Activity (MIC)” value (Escherichia coli JUHL) was greater than 100. For the same molecule, the “Antibacterial Activity (MIC)” value [4] was 50, the “Antibacterial Activity (MIC)” value [5] was 25 and the “Antibacterial Activity (MIC)” value [6] was 25. For the same molecule, the “Antibacterial Activity (MIC)” value [7] was 3.1, the “Antibacterial Activity (MIC)” value (Escherichia coli DC-2) was greater than 100 and the “Antibacterial Activity (MIC)” value [8] was 25. For the same molecule, the “Antibacterial Activity (MIC)” value [9] was 50, the “Antibacterial Activity (MIC)” value [10] was 25 and the “Antibacterial Activity (MIC)” value [11] was 12.5. The “Antibacterial Activity (MIC)” value [12] was 25, the “Antibacterial Activity (MIC)” value [13] was 50 and the “Antibacterial Activity (MIC)” value [14] was 12.5. For the same molecule, the “Antibacterial Activity (MIC)” value [15] was 100, the “Antibacterial Activity (MIC)” value [16] was 100 and the “Antibacterial Activity (MIC)” value [17] was 8. For the same molecule, the “Antibacterial Activity (MIC)” value [18] was 16, the “Antibacterial Activity (MIC)” value [19] was 6.2 and the “Antibacterial Activity (MIC)” value [20] was 4. For the same molecule, the “Antibacterial Activity (MIC)” value [21] was 12.5, the “Antibacterial Activity (MIC)” value [22] was greater than 128 and the “Antibacterial Activity (MIC)” value [23] was 64.

For `CCC1OC(=O)C(C)(O)C(=O)C(C)C(OC2OC(C)CC(N(C)C)C2O)C(C)(OC)CC(C)C(=O)C(C)C2N(CCCCc3ccccc3)C(=O)OC12C` (stereo not shown) [Example 10, Compound of formula (II): R^a is CH3, R^b is H, Y and Z together are O, T is —N(W(R^g))-, W is —(CH2)p-, p is 4, R^g is phenyl R is —OH], the “Antibacterial Activity (MIC)” value [1] was 1.56, the “Antibacterial Activity (MIC)” value [2] was 1.56 and the “Antibacterial Activity (MIC)” value [3] was 1.56. For the same molecule, the “Antibacterial Activity (MIC)” value (Escherichia coli SS) was 3.1, the “Antibacterial Activity (MIC)” value (Candida albicans CCH 442) was 25 and the “Antibacterial Activity (MIC)” value (Escherichia coli JUHL) was greater than 100. The “Antibacterial Activity (MIC)” value [4] was 6.2, the “Antibacterial Activity (MIC)” value [5] was 1.56 and the “Antibacterial Activity (MIC)” value [6] was 1.56. For the same molecule, the “Antibacterial Activity (MIC)” value [7] was 0.39, the “Antibacterial Activity (MIC)” value (Escherichia coli DC-2) was greater than 100 and the “Antibacterial Activity (MIC)” value [8] was 1.56. For the same molecule, the “Antibacterial Activity (MIC)” value [9] was 1.56, the “Antibacterial Activity (MIC)” value [10] was 1.56 and the “Antibacterial Activity (MIC)” value [11] was 0.2. The “Antibacterial Activity (MIC)” value [12] was 0.39, the “Antibacterial Activity (MIC)” value [13] was 1.56 and the “Antibacterial Activity (MIC)” value [14] was 0.2. The “Antibacterial Activity (MIC)” value [15] was 25, the “Antibacterial Activity (MIC)” value [16] was 25 and the “Antibacterial Activity (MIC)” value [19] was 0.39. For the same molecule, the “Antibacterial Activity (MIC)” value [21] was 0.2 and the Antibacterial Activity (MIC) ([22]; unit assumed) was 16 µg/mL.
